In assay [1] the test system is clinical isolate CR-K. pneumoniae 7225. The experiment in a line: Non-lethal mouse peritonitis infection model. It counts as in vivo, Swiss albino mice. As to conditions: monotherapy at 10 mg kg^−1; preliminary dosing experiments. The method, then:
For both lethal and non-lethal infection models involving Carbapenem resistant Klebsiella pneumoniae suitable strains, number of mice per treatment and bacterial infection dose were predetermined in preliminary experiments.
Each mouse (n=6 per group) received an intraperitoneal (i.p.) injection of 200 μl of bacterial suspension (1×10^4 CFU ml^−1).
Mice were then treated once daily for two subsequent days (i.e. 24 h and 48 h). Twenty-four-hours after the last dose, the mice were euthanized via cervical dislocation and their spleen and liver excised, homogenized in PBS and plated onto Hichrome™ Klebsiella selective media (HiMedia Laboratories, PA, USA). The plates were incubated at 35° C. for 24 h and bacterial counts were determined (CFU g^−1 organ).
Based on the significance of the SP-azaBIMs to restore the in vitro efficacy of antibiotics against high priority pathogenic bacteria, we examined if these compounds could provide proof of concept that they could be used to treat in vivo infections. To test this, we performed both non-lethal and lethal intraperitoneal infection models in Swiss Albino mice.
There was a significant reduction in the K. pneumoniae load in both the liver (FIG. 2a) and spleen (FIG. 2b) for the combination therapies compared to the respective antibiotic monotherapies. […] Colistin (Col) (10 mg kg^−1) was used as the positive control in this case. K. pneumoniae load in the liver (FIG. 2a) and spleen (FIG. 2b) was determined by selective plating on Hichrome™ Klebsiella selective media. Data bars represent the average (n=6 mice per treatment group)±standard error.

Assay [2] deals with Klebsiella pneumoniae ATCC BAA-2814. In words: Gene expression analysis by quantitative reverse transcription PCR. Type of assay: cell-based. The conditions noted are these: for ROB gene expression compared to untreated cells / soxS gene expression compared to untreated cells: Meropenem only 0.25 MIC (8 μg mL^−1). The method, then:
Cell treatment and RNA extraction: Overnight cultures of Klebsiella pneumoniae ATCC BAA-2814 grown on Brain Heart Infusion (BHI) agar was harvested and washed in phosphate buffer saline (pH=7.4) twice. Fresh Brain Heart infusion broth was inoculated with K. pneumoniae cells to a final concentration of 10^6 CFU mL^−1. Cells were subjected to the following treatments: T0—Vehicle only (ddH2O); T1—Meropenem only (0.25 MIC; 8 μg mL^−1); T2—Meropenem 0.25 MIC+SP-azaBIM 136 (2 ug mL^−1). Treated cells were incubated at 35° C. at 200 rpm and total RNA was extracted at 1 h and 6 h post exposure using TRIzol reagent (Life Technologies) following the manufacturer's protocol before eluting in DEPC treated water. Three biological replicates were included for each treatment.
Quantitative reverse transcription PCR analysis: Reverse transcription was done using the GoScript Reverse Transcriptase Kit (Promega, USA) employing a mixture (1:1) of random and oligo dT primers with 2 μg RNA as starting material in a 20-μL reaction following the manufacturers protocols. cDNA samples were then quantified by real-time PCR using specific primers in an Applied Biosystems 7500 Fast Real-Time PCR system (Life Technologies Corp., USA) and the data analysed using the 2^(−ΔΔct) method. Thermal cycling was performed using a two-step PCR amplification standard procedure at 95° C. for 30 s and 35 cycles of 95° C. for 5 s and 60° C. for 30 s. The expression levels of all the genes were normalized using the K. pneumoniae RNA polymerase sigma factor (rpoD) gene as an internal standard.
To examine this hypothesis, we investigated the expression of genes in K. pneumoniae ATCC […] that were affected by SP-azaBIM 136 treatment. Expression of key transcription factors and their associated downstream resistance and pathogenicity genes was examined in Klebsiella pneumoniae cells treated with meropenem and a combination of meropenem and SP-azaBIM 136. Cells in the exponential phase were either treated with 0.25 MIC (8 μg mL^−1) of Meropenem only or a combination of 0.25 MIC meropenem and 10 μg mL^−1 of SP-azaBIM 136. Untreated cells served as the control for baseline gene expression. Cells were exposed to each agent for 1 h and 6 h, after which the total RNA was extracted, and cDNA synthesis performed. […] The addition of SP-azaBIM 136 was theorized to revert the expression of the relevant genes closer to baseline expression levels.

In the next assay the test system is K. pneumoniae. The experiment in a line: Rescue concentration of substituted phenyl azaindole derivatives. It counts as cell-based. The conditions noted are these: for Rescue concentration, K. pneumoniae Ciprofloxacin (1 μg/mL): Ciprofloxacin fixed at 1 μg/mL; for Rescue concentration, K. pneumoniae Imipenem (1 μg/mL): Imipenem fixed at 1 μg/mL. An outline of the steps:
(§1)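 Modified checkerboard MIC: fixed CLSI susceptible-breakpoint antibiotic concentration plus twofold dilution series of SP-azaBIM, 10^6 CFU/ml in ca-MHB, 35° C, 24 h aerobic. Only antibiotics to which the strain was resistant were tested. Rescue concentration = lowest compound concentration giving 99.99% growth reduction (visual) at breakpoint.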

A further assay has as its system MRSA. The description is as above. It counts as cell-based, Staphylococcus aureus. As to conditions: Amoxicillin fixed at 2 μg/mL. An outline of the steps: as §1
Assay [3] has as its system Vancomycin resistant Enterococcus faecalis. The experiment in a line: Broth microdilution minimum inhibitory concentration. It counts as cell-based. The conditions noted are these: compound alone. An outline of the steps:
(§2)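 Broth microdilution followed CLSI M07-A10, using 11 two-fold dilutions (top 1028 μg/mL, 2% DMSO final) and an inoculum of 2×10^5 to 8×10^5 CFU/mL. Wells were scored visually. MIC is the lowest concentration with no growth, tested in duplicate.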
(Dilution methods test growth across graded concentrations, often in twofold steps.)

Assay [4] deals with Multidrug resistant Pseudomonas aeruginosa. The assay is described as above. It counts as cell-based. The conditions noted are these: compound alone. An outline of the steps:
as §2

The subject of assay [5] is Carbapenem resistant Klebsiella pneumoniae. Described as above. It counts as cell-based. The conditions noted are these: compound alone. In a few lines:
as §2

Assay [6] deals with Carbapenem resistant Acinetobacter baumannii. Described as above. Type of assay: cell-based. The conditions noted are these: compound alone. An outline of the steps:
as §2

The test system of assay [7] is Methicillin resistant Staphylococcus aureus. The assay is described as above. Type of assay: cell-based. The conditions noted are these: compound alone. An outline of the steps:
as §2

A further assay concerns P. aeruginosa. In words: Rescue concentration of substituted phenyl azaindole derivatives. It counts as cell-based. The conditions noted are these: Imipenem fixed at 1 μg/mL. In a few lines: as §1

SMILES strings stand for the structures.

As to `C[C@@H](O)[C@H]1C(=O)N2C(C(=O)O)=C(S[C@@H]3CN[C@H](C(=O)N(C)C)C3)[C@H](C)[C@H]12` [Meropenem, reference compound], in assay [1], the “Efficacy of antibiotic monotherapy against K. pneumoniae 7225” value was “ineffective”. Moreover, in assay [2] (Meropenem only), the “mexA efflux pump gene expression above untreated cells (peak)” value is on record as 8.7 folds and the “norB efflux pump gene expression above untreated cells (peak)” value is given as 2.2 folds. Moreover, the “ROB gene expression compared to untreated cells” value in assay [2] (1 h) is given as “approximately 3 folds”. Also, in assay [2] (6 h), the “ROB gene expression compared to untreated cells” value is listed as 12 folds and the “soxS gene expression compared to untreated cells” value amounted to 18 folds. Also, in assay [2] (initial (1 h)), the “soxS gene expression compared to untreated cells” value was 3 folds.
As for `O=Cc1cccc(C(O)c2c[nH]c3c(Cl)nccc23)c1` (stereo not shown) [iso-7Cl-6aza-OH, 3-((7-chloro-1H-pyrrolo[2,3-c]pyridin-3-yl)(hydroxy)methyl)benzaldehyde], the “Rescue concentration, K. pneumoniae Ciprofloxacin (1 μg/mL)” value with K. pneumoniae was below 256 µg/mL. Besides, the “Rescue concentration, K. pneumoniae Imipenem (1 μg/mL)” value with K. pneumoniae is below 256 µg/mL. Besides, in the assay with MRSA, the “Rescue concentration, MRSA Amoxicillin (2 μg/mL)” value (“Rescue concentration … (2 μg/mL)” for short) came to 32 µg/mL. For the same compound, the MIC in [3], in assay [4], in assay [5], in assay [6] and in assay [7] was below 1020 µg/mL throughout. Moreover, the “Rescue concentration, P. aeruginosa Imipenem (1 μg/mL)” value with P. aeruginosa is below 256 µg/mL.
Regarding `OC(c1ccc(Br)cc1)c1c[nH]c2cnc(Br)cc12` (stereo not shown) [4Br-5Br-6aza-OH, (5-bromo-1H-pyrrolo[2,3-c]pyridin-3-yl)(4-bromophenyl)methanol], in the assay on K. pneumoniae, the “Rescue concentration, K. pneumoniae Ciprofloxacin (1 μg/mL)” value is below 256 µg/mL. Besides, the “Rescue concentration, K. pneumoniae Imipenem (1 μg/mL)” value with K. pneumoniae is below 256 µg/mL. The “Rescue concentration … (2 μg/mL)” value with MRSA was 4 µg/mL. Besides, the MIC in assay [3], in assay [4], in [5], in [6] and in [7] was below 1020 µg/mL throughout. In addition, the “Rescue concentration, P. aeruginosa Imipenem (1 μg/mL)” value in the assay on P. aeruginosa was below 256 µg/mL.
With `Nc1ccc(C(O)c2c[nH]c3cnccc23)cc1` (stereo not shown) [Compound 4NH2-6aza-OH, (4-aminophenyl)(1H-pyrrolo[2,3-c]pyridin-3-yl)methanol], the “Rescue concentration, K. pneumoniae Ciprofloxacin (1 μg/mL)” value with K. pneumoniae is 64 µg/mL. Moreover, the “Rescue concentration, K. pneumoniae Imipenem (1 μg/mL)” value with K. pneumoniae amounted to 16 µg/mL. In addition, in the assay with MRSA, the “Rescue concentration … (2 μg/mL)” value worked out at 8 µg/mL. Moreover, the MIC in [3], in [4], in [5], in [6] and in assay [7] was below 1020 µg/mL each time. Besides, in the assay with P. aeruginosa, the “Rescue concentration, P. aeruginosa Imipenem (1 μg/mL)” value is 128 µg/mL.
Consider `OC(c1ccc(Br)cc1)c1c[nH]c2ncc(Cl)cc12` (stereo not shown) [4Br-5Cl-7aza-OH, (4-bromophenyl)(5-chloro-1H-pyrrolo[2,3-b]pyridin-3-yl)methanol], for which, in the assay on K. pneumoniae, the “Rescue concentration, K. pneumoniae Ciprofloxacin (1 μg/mL)” value stood at 32 µg/mL. For the same compound, in the assay on K. pneumoniae, the “Rescue concentration, K. pneumoniae Imipenem (1 μg/mL)” value amounted to 32 µg/mL. Besides, the “Rescue concentration … (2 μg/mL)” value with MRSA was determined as 8 µg/mL. The MIC in assay [3], in assay [4], in [5], in assay [6] and in assay [7] was below 1020 µg/mL in each case. For the same compound, the “Rescue concentration, P. aeruginosa Imipenem (1 μg/mL)” value in the assay on P. aeruginosa was 256 µg/mL.
As to `Oc1ccc(C(c2c[nH]c3cnc(Cl)cc23)c2c[nH]c3cnc(Cl)cc23)cc1` [4OH-Bis 5Cl 6aza, 4-(bis(5-chloro-1H-pyrrolo[2,3-c]pyridin-3-yl)methyl)phenol], the “Rescue concentration, K. pneumoniae Ciprofloxacin (1 μg/mL)” value in the assay on K. pneumoniae was below 256 µg/mL. The “Rescue concentration, K. pneumoniae Imipenem (1 μg/mL)” value in the assay on K. pneumoniae was below 256 µg/mL. In the assay with MRSA, the “Rescue concentration … (2 μg/mL)” value was 8 µg/mL. Also, the MIC in assay [3], in assay [4], in [5], in [6] and in assay [7] was below 1020 µg/mL in each case. In the assay with P. aeruginosa, the “Rescue concentration, P. aeruginosa Imipenem (1 μg/mL)” value is below 256 µg/mL.
Take `O=[N+]([O-])c1ccccc1C(O)c1c[nH]c2cnccc12` (stereo not shown) [Compound 2NO2-6aza-OH, (2-nitrophenyl)(1H-pyrrolo[2,3-c]pyridin-3-yl)methanol]: the “Rescue concentration, K. pneumoniae Ciprofloxacin (1 μg/mL)” value in the assay with K. pneumoniae stood at 256 µg/mL. Also, in the assay on K. pneumoniae, the “Rescue concentration, K. pneumoniae Imipenem (1 μg/mL)” value stood at 128 µg/mL. Besides, the “Rescue concentration … (2 μg/mL)” value with MRSA came out at 256 µg/mL. Moreover, the MIC in assay [3], in assay [4], in assay [5], in assay [6] and in [7] was below 1020 µg/mL each time. The “Rescue concentration, P. aeruginosa Imipenem (1 μg/mL)” value in the assay with P. aeruginosa is below 256 µg/mL.
Turning to `OC(c1ccc(Br)cc1)c1c[nH]c2cnccc12` (stereo not shown) [Compound 4Br-6aza-OH, (4-bromophenyl)(1H-pyrrolo[2,3-c]pyridin-3-yl)methanol], the “Rescue concentration, K. pneumoniae Ciprofloxacin (1 μg/mL)” value in the assay on K. pneumoniae came out at 4 µg/mL. For the same compound, the “Rescue concentration, K. pneumoniae Imipenem (1 μg/mL)” value in the assay with K. pneumoniae was 8 µg/mL. Besides, in the assay on MRSA, the “Rescue concentration … (2 μg/mL)” value was 32 µg/mL. The minimal inhibitory concentration (MIC) in assay [3], in assay [4], in assay [5], in assay [6] and in [7] was below 1020 µg/mL throughout. The “Rescue concentration, P. aeruginosa Imipenem (1 μg/mL)” value in the assay with P. aeruginosa was found to be 16 µg/mL.

In general, MIC refers to the least concentration at which growth counts as inhibited.

The record behind these values is patent publication US20230382926A1, “COMPOUNDS AND USES THEREOF” (The University of The West Indies, priority 2022, published 2023).
